In paper PMC11679574, “Intestinal Cells-on-Chip for Permeability Studies” (Micromachines, 2024):
Where two headings read alike, the source gives them in different places.

Columns and labels:
[1] = system: glucuronosyltransferases (UGTs); assay: Phase II metabolism of 7-hydroxycoumarin in enteroid monolayers, static Transwell; format: in vitro ADME, human; settings: enteroids, 12 µM
Description: (§1) For specific inhibition, 5 µM elacridar and 5 µM ketoconazole (both Sigma-Aldrich, Zwijndrecht, The Netherlands) were used. The drug cocktail was added to the apical medium reservoirs of chip experiments (flow) and the apical insert of static Transwell inserts. Inhibitors were added to both apical dose solution and basolateral transport buffer. During experiments, samples were collected at different timepoints from both apical and basolateral medium reservoirs, mixed with equal volume of ultrapure MeOH and stored at −20 °C until analysis by LC-MS/MS.
(§2) For quantification, a standard of parental compounds and metabolites was prepared in the same medium as samples. Metabolites included were 1’-hydroxymidazolam (Sigma-Aldrich) and 7-hydroxycoumarin glucuronide (LGC Standards, OLY, UK). Both standard and samples were centrifuged for 10 min at 1500× g to precipitate protein, and subsequently, 1 µL was injected. […] A limit of quantification (LOQ) was determined for each compound based on the standard curve and a limit of detection (LOD) was determined based on a noise signal. For each experiment, corresponding dose and blanks were included in measurements. Recovery was calculated as the percentage of original dose added to the system.
(§3) All static control experiments were performed in cell monolayers cultured on transparent Transwell inserts (Corning, Life Sciences BV, Amsterdam, The Netherlands). […]

[2] = system: glucuronosyltransferases (UGTs); assay: Phase II metabolism of 7-hydroxycoumarin in enteroid monolayers, chip system; format: in vitro ADME, human; settings: enteroids, 12 µM
Description: To add the culture disc with cells into the system, it was transferred to a biosafety cabinet, the chips were opened from the top and the discs were added to the chip, after which they were closed using a twisting cap mechanism. Sufficient medium was added to the chip to ensure no air bubbles were trapped during this procedure. Flow speed was adjusted to 17 µL/min and the system was placed back into a cell culture incubator (37 °C, 5% CO2). After a short period of equilibration, transport medium (with/without compound of interest) was added to apical and basolateral reservoirs, with the basolateral medium containing 4% BSA. The medium volumes in the reservoirs depended on the duration of the experiment and the sample volumes required but were between 5 and 6.5 mL. To completely replace the medium inside the tubing and chip with fresh transport medium, the system was run without medium recirculation for 30 min prior to the start of measurements. Details on the permeability measurements are described below. […]
(§4) For quantification, a standard of parental compounds and metabolites was prepared in the same medium as samples. […] A limit of quantification (LOQ) was determined for each compound based on the standard curve and a limit of detection (LOD) was determined based on a noise signal. […] Recovery was calculated as the percentage of original dose added to the system.

[3] = no reference given; cited from earlier work
[4] = Permeability in cell-on-chip system under laminar flow, enteroid monolayers; settings: human
Description: (§5) To add the culture disc with cells into the system, it was transferred to a biosafety cabinet, the chips were opened from the top and the discs were added to the chip, after which they were closed using a twisting cap mechanism. Sufficient medium was added to the chip to ensure no air bubbles were trapped during this procedure. Flow speed was adjusted to 17 µL/min and the system was placed back into a cell culture incubator (37 °C, 5% CO2). After a short period of equilibration, transport medium (with/without compound of interest) was added to apical and basolateral reservoirs, with the basolateral medium containing 4% BSA. The medium volumes in the reservoirs depended on the duration of the experiment and the sample volumes required but were between 5 and 6.5 mL. To completely replace the medium inside the tubing and chip with fresh transport medium, the system was run without medium recirculation for 30 min prior to the start of measurements. Details on the permeability measurements are described below.
(§6) Leakage to the basolateral medium was determined using the BioTek Synergy H1 microplate reader (BioSPX, Abcoude, The Netherlands). […] Apparent permeability values (Papp) were calculated according to Equation (1):(1) Papp=dQ/dt×(1/A×C0) in which dQ/dt is the amount of drug transported over the barrier (ng/sec), A is the exposed area of the cell monolayer (cm^2) and C0 is the initial dose concentration of the compound (ng/mL). All measurements were performed under flow (17 µL/min), and the chip system was inside a cell culture incubator (37 °C, 5%CO2) during the entire experiment, as described in Section 2.6.
(§7) Apical and basolateral medium reservoirs were sampled at t = 0, 1, 2 and 4 h. All measurements were performed under flow (17 µL/min), and the chip system was inside a cell culture incubator (37 °C, 5% CO2) during the entire experiment, as described in Section 2.6.
as §1, §4

[5] = in vitro; settings: human
Description: as §6, §7, §1, §2
(§8) All static control experiments were performed in cell monolayers cultured on transparent Transwell inserts (Corning, Life Sciences BV, Amsterdam, The Netherlands). Procedures for seeding and culturing were exactly the same as previously reported. […] The only difference was in the volume of apical (100 µL) and basolateral (600 µL) compartment, which was accounted for in Papp calculations. All measurements were performed inside a cell culture incubator (37 °C, 5% CO2).

[6] = biological target: CYP3A4 (Homo sapiens, UniProt P08684); assay: Phase I metabolism of midazolam in enteroid monolayers, static Transwell; settings: enteroids, static Transwell cultures
Sequence of CYP3A4 (P08684 whole entry): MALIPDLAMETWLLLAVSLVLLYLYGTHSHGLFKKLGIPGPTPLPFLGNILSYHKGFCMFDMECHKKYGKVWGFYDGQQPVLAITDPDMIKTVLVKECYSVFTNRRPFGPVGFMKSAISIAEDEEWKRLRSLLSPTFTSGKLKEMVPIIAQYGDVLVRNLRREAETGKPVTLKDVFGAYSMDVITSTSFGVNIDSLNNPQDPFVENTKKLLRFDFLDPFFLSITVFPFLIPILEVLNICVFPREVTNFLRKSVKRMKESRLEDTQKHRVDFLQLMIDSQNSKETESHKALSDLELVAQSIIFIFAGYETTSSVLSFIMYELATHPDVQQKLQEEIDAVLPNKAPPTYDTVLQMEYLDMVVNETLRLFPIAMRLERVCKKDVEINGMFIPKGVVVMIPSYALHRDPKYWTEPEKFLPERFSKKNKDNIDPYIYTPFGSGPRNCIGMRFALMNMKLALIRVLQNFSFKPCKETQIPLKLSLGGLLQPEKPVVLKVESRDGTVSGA
Description: as §1, §2, §3

[7] = Compound recovery, cell-on-chip system; format: in vitro ADME; settings: human, read-out: Recovery, percentage of original dose
[8] = system: enteroid monolayers; assay: Permeability in cell-on-chip system under laminar flow, enteroid monolayers
Description: as §5, §6, §7, §1, §4

[9] = system: enteroid monolayers; assay: in vitro
Description: as §6, §7, §1, §2, §8

[10] = system: Caco-2 monolayers; assay: Permeability in static Transwell inserts, Caco-2 monolayers; format: in vitro ADME, human; settings: static culture, intact Caco-2 monolayer
Description: Leakage to the basolateral medium was determined using the BioTek Synergy H1 microplate reader (BioSPX, Abcoude, The Netherlands). FD4 was measured with an excitation/emission wavelength of 485 nm and 528 nm, and CB was measured at 365 nm and 412 nm, respectively. Apparent permeability values (Papp) were calculated according to Equation (1):(1) Papp=dQ/dt×(1/A×C0) in which dQ/dt is the amount of drug transported over the barrier (ng/sec), A is the exposed area of the cell monolayer (cm^2) and C0 is the initial dose concentration of the compound (ng/mL).
All static control experiments were performed in cell monolayers cultured on transparent Transwell inserts (Corning, Life Sciences BV, Amsterdam, The Netherlands). […] The only difference was in the volume of apical (100 µL) and basolateral (600 µL) compartment, which was accounted for in Papp calculations. All measurements were performed inside a cell culture incubator (37 °C, 5% CO2).

With `O=c1ccc2ccc(O)cc2o1` [7OH-coumarin, 7-hydroxycoumarin] the 7-hydroxycoumarin glucuronide formation [1] was “confirm UGT activity” and the 7-hydroxycoumarin glucuronide formation [2] was “confirm UGT activity”.
In the case of `Cc1cc(=O)n(-c2ccccc2)n1C` [Antipyrine, antipyrine], the “fraction absorbed (Fa)” value [3] is listed as 100%.
For `CC(C)NCC(O)COc1ccc(CC(N)=O)cc1` (stereo not drawn) [Atenolol, atenolol], the “fraction absorbed (Fa)” value [3] is given as 50%.
`CN(C)C(=N)N=C(N)N` [Metformin, metformin] showed a Papp A→B [4] of 4.6 ×10⁻⁶ cm/s and a Papp A→B [5] of 1.44 ×10⁻⁶ cm/s.
In the case of `Cc1ncc2n1-c1ccc(Cl)cc1C(c1ccccc1F)=NC2` [Midazolam, midazolam], the OH-midazolam formation ([6]; in the presence of ketoconazole 5 µM) is reported as “absent”, the OH-midazolam formation ([6]; midazolam 10 µM) is reported as “increase in OH-midazolam over time” and the recovery at 10 µM ([7]; chips containing translucent membranes) is reported as 41%. For the same compound, the recovery at 10 µM ([7]; chips with transparent membranes) was 11%.
For `CC(C)c1nc(N(C)S(C)(=O)=O)nc(-c2ccc(F)cc2)c1/C=C/[C@@H](O)C[C@@H](O)CC(=O)O` [Rosuvastatin, rosuvastatin], the Papp A→B [4] was 1.11 ×10⁻⁶ cm/s, the “Papp (in words)” value ([8]; enteroids, chip experiments, drug cocktail, 10 µM) was “low” and the Papp A→B [5] was 0.7 ×10⁻⁶ cm/s. The “Papp (in words)” value [9] was “low”.
With Cascade Blue [CB] the “Overall permeation compared to FD4” value ([8]; chip system, overall over cell types and membranes) was “approximately 2 fold”, the Papp ([9]; static culture, intact enteroid monolayer) was 0.08 ·10^−6 cm/s and the Papp [10] was 0.5 ·10^−6 cm/s.
In the case of Dextran-FITC 4 kDa [FD4], the “Papp A to B, Static” value [9] is reported as 0.01 ×10⁻⁶ cm/s.
